The subject of assay [1] is human telomerase (extract of HL60 cells enriched in telomerase activity). The experiment in a line: TRAP assay of telomerase activity (extension of oligonucleotide TS, PCR amplification). Conditions: compounds at 10, 1, 0.1 and 0.01 μg/ml. It is filed as biochemical. The procedure: The antitelomerase biological activity is determined by the following experimental protocol:
Preparation of the Extract Enriched in Human Telomerase Ectivity:
The leukemia line HL60 is obtained from ATCC (American Type Culture Collection, Rockville USA). The cells are cultured in suspension in RPMI 1640 medium containing L-Glutamine at 2 mM, Penicillin 200 U/ml, streptomycin 200 μg/ml, gentamycin 50 μg/ml and supplemented with 10% heat-inactivated fetal calf serum.
An aliquot of 10^5 cells is centrifuged at 3000×G and the supernatant discarded. […]
The samples are then analyzed by electrophoresis on 12% acrylamide gel in a 1×TBE buffer for 1 hour at a voltage of 200 volts, with the aid of a Novex electrophoresis system. […]
The analysis and the quantification of the reaction products are carried out with the aid of an InstantImager apparatus (Pacard).
For each compound concentration tested, the results are expressed as percentage inhibition of the reaction and calculated from the untreated enzymatic control and from the enzyme-free sample (blank) according to the following formula: (Compound Value−blank value/enzymatic control value−blank value)×100. […]
A compound is considered to be active as an antitelomerase agent when the quantity inhibiting 50% of the telomerase reaction is less than 5 μM.

Assay [2] has as its system G-quadruplex of oligonucleotide GGGTTAGGGTTAGGGTTAGGG (3.5 repeats of the human telomeric motif). Briefly: G-quadruplex stabilisation, fluorescence Tm of FAM+DABCYL oligonucleotide. It is filed as binding. As to conditions: test product 1 μM, oligonucleotide 0.2 μM, 0.1 M LiCl, 10 mM cacodylate buffer pH 7.6; reference Tm 44° C. From the text:
The G-quadruplex stabilizing activity may be determined by a method using the formation of a complex with fluorescein, as described below.
All the oligonucleotides, modified or otherwise, were synthesized by Eurogentec SA, Seraing, Belgium. The oligonucleotide FAM+DABCYL carries the catalog reference OL-0371–0802. It has the sequence: […] (SEQ ID NO:1) corresponding to 3.5 repeats of the human telomeric motif (strand rich in G). The fluorescein is chemically attached to the 5′ end, and the DABCYL to the 3′ end, as described by Eurogentec. The concentration of the samples is checked by spectrophotometry, recording the absorbance spectrum between 220 and 700 nm and using the molar extinction coefficient provided by the supplier. […]
All the measurements of fluorescence were carried out on a Spex Fluorolog DM1B apparatus, using an excitation line width of 1.8 nm and an emission line width of 4.5 nm. […] The oligonucleotide alone was analyzed at 20, 30, 40, 50, 60, 70 and 80° C. The emission spectra are recorded using an excitation wavelength of 470 nm. The excitation spectra are recorded using either 515 nm or 588 nm as emission wavelength. […] A high extinction (80–90%) of the fluorescence of fluorescein at room temperature is observed, in agreement with an intramolecular folding of the oligonucleotide at 20° C. in the form of a G-quadruplex. […]

On to `CSc1nc(NCCN(C)C)nc(Nc2ccc3nc(C)cc(N)c3c2)n1` [Example 1-1, N6-[6-(2-dimethylaminoethylamino)-4-methylsulfanyl-[1,3,5]triazin-2-yl]-2-methylquinoline-4,6-diamine], for which the half-maximal inhibitory concentration (IC50) in assay [1] was 790 nM. Moreover, in assay [2], the “G-4 ΔTm” value stood at 6 °C.

“N6-[(6-(3-dimethylaminopropylamino)-4-diethylamino-[1,3,5]triazin-3-yl]-2-methylquinoline-4,6-diamine [Example 2-1]” yielded an IC50 in assay [1] of 900 nM. Besides, the “G-4 ΔTm” value in assay [2] came to 7.9 °C.

Values taken from patent US7179816B2, “Chemical derivatives and their application as antitelomerase agents” (Aventis Pharma S.A., priority 2001, dated 2007).
